According to PubChem BioAssay AID810 (The Scripps Research Institute Molecular Screening Center, 2007):
Activity calls are given as the source filed them. The rule behind the calls is not given here.

Biological target: Focal adhesion kinase 1 (Homo sapiens) (UniProt Q05397)
Test: human PTK2 enzyme blockers, IC50 – biochemical, dose response (AID 810)
Conditions: Recombinant FAK kinase activity inhibition assay

Chain of Focal adhesion kinase 1 (Homo sapiens) (Q05397 whole entry, looked up): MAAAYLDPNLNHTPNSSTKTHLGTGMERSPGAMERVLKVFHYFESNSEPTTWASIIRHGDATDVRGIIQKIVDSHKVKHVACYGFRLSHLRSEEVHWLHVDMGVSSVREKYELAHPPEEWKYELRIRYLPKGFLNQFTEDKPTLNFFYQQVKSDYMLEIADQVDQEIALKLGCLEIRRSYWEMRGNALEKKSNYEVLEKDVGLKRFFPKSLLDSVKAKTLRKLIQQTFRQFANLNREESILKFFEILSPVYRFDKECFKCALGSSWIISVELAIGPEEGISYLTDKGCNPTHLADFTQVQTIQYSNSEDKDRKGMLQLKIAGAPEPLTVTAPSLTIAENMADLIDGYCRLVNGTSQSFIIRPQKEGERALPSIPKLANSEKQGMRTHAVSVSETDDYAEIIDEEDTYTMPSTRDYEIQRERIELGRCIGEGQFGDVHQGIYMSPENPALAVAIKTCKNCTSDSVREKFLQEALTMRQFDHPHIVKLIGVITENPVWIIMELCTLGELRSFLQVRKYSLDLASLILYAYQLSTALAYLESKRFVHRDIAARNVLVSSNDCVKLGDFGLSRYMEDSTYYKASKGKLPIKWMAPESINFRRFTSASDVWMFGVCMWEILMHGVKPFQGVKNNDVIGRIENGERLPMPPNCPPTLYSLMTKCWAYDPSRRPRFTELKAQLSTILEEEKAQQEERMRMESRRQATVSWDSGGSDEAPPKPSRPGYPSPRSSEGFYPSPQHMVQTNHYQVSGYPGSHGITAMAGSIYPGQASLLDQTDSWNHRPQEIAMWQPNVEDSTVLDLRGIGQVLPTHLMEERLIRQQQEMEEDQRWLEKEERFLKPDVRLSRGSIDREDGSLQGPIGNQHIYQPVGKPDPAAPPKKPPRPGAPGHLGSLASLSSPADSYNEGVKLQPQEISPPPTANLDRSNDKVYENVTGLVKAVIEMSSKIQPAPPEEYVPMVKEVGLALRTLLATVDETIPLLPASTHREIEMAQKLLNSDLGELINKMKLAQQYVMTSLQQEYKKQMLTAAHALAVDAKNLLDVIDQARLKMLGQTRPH

IC50	SMILES
inactive	CCOC(=O)c1cccc2c1-c1ccccc1/C2=N/O
5.64 µM	O=C1C(c2ccnc3ccccc23)=C(O)c2ccccc21
> 70 µM (inactive)	CCOC(=O)C1=C(c2ccccc2)OC(N)=C(C#N)C1c1cccs1 (stereo unspecified)
9.43 µM	COC(=O)c1cccc2c1-c1ccccc1/C2=N/O
> 70 µM (inactive)	CCOC(=O)C1=C(c2ccccc2)OC(N)=C(C#N)C1C1CCCCC1 (stereo unspecified)

Second part, the compound before the results:

SMILES	IC50
COc1cc(N=Cc2c(O)[nH]c3ccccc23)cc(OC)c1OC	3.13 µM
COCCOC(=O)C1=C(C)NC2=C(C(=O)CC(c3cccs3)C2)C1c1ccsc1 (stereo unspecified)	> 70 µM (inactive)
O=c1c(/C=N/O)c(Nc2ccccc2)nc2ccccn12	inactive
Cc1nn2c(c1-c1ccccc1)NC1=C(C(=O)CCC1)C2c1ccccc1 (stereo unspecified)	> 70 µM (inactive)
CCOC(=O)c1sc2c(c1C)C(c1cccs1)C1=C(CCCC1=O)N2 (stereo unspecified)	> 70 µM (inactive)
CCOCCOC(=O)C1=C(C)NC2=C(C(=O)CC(c3cccs3)C2)C1c1ccsc1 (stereo unspecified)	> 70 µM (inactive)
COC(=O)C1=C(C)NC2=C(C(=O)CC(c3cccs3)C2)C1c1ccsc1 (stereo unspecified)	> 70 µM (inactive)
O=[N+]([O-])c1cc(/C=N\Nc2nccs2)ccc1O	5.82 µM
CN1CCc2c(sc3ncn4nc(-c5ccccc5O)nc4c23)C1	inactive
N#Cc1ccccc1/C=N/Nc1nc(-c2ccccc2)c2cc(Cl)ccc2n1	inactive
COc1cccc(CN2CC(O)=C(c3nc(-c4ccc(Cl)cc4)cs3)C2=N)c1	inactive
